These are literature values, as cited in US20230338375A1, “SUBSTITUTED PYRIDAZINONES FOR USE IN THE TREATMENT OF NEUROMUSCULAR DISEASES” (Edgewise Therapeutics, Inc., priority 2020, published 2023).

The subject of this series is embryos from zebrafish model of DMD. Conditions: Li and Arner, PLoSONE, 2015.

SMILES strings stand for the structures.

As for `Cc1ccc(S(=O)(=O)NCc2ccccc2)cc1` [BTS, N-benzyl-p-tolyl-sulfonamide], the “protection from pathological muscle derangement” value is “protect muscles from pathological muscle derangement”.
